# Test results reported in US20030008807A1, “Novel signaling pathway for the production of inflammatory pain and neuropathy” (The Regents of the University of California, priority 2001, published 2003).
# Legend:
# [1] = system: mechanical nociceptive threshold; assay: Epinephrine-induced hyperalgesia in gonad-intact and gonadectomized male and female rats (Example 2); details: for absolute decrease in threshold after epinephrine: n=18
# Protocol: The nociceptive flexion reflex was quantified using the Randall-Selitto paw pressure device (Analgesymeter, Stoetling, Chicago, Ill., USA), which applies a linearly increasing mechanical force to the dorsum of the rat's hind paw. The mechanical nociceptive threshold was defined as the force in grams at which the rat withdrew its paw. […] Baseline paw-withdrawal threshold was defined as the mean of six readings before test agents were injected. […] Each group of rats was treated with only one agonist and/or antagonist injected peripherally by the intradermal route. […] All behavioural testing was done between 10.00 and 16.00 h. […] The protein kinase inhibitor was separated from the distilled water by drawing up a small air bubble (<1 μL) into the syringe after drawing up the protein kinase inhibitor but before drawing up the distilled water.
# A stock solution of PGE2 (4 mg/mL) was made by dissolving it in 10% ethanol in normal saline; further dilution to 100 ng was made by addition of saline. Final concentration of ethanol was <10%. […] Stock solutions (1 μg/μL) of inhibitors were stored at −20° C. […] Inhibitors were injected at a concentration of 1 μg/2.5 μL.
# [2] = system: ERK1/2; assay: Epinephrine-stimulated ERK1/2 phosphorylation in cultured rat DRG neurons (Western analysis); format: cell-based
# Protocol: Trypsin was inactivated by adding 100 μg/ml soybean trypsin inhibitor and 2.5 mg/ml MgSO4. The cells were centrifuged at 300×g for 5 min and resuspended culture media containing minimal essential medium (MEM) supplemented with 10% heat-inactivated fetal calf serum, 1×MEM vitamins, and 1000 U/ml each of penicillin and streptomycin. The culture was enriched for neurons by preplating on 100 mm culture dishes pretreated with 0.1 mg/ml poly-DL-ornithine in 15 mM sodium borate buffer. After culture for 15-20 hr, the loosely attached neuronal cells were collected and plated for 3 hr on six-well plates coated with 0.1 mg/ml poly-DL-ornithine and 1 mg/ml laminin.
# After drug treatment, cells from neuron-enriched DRG cultures were collected and centrifuged at 300×g for 5 min at 4° C. […] Blots were incubated with anti-phospho-p42/44 MAP kinase antibody (diluted 1:500 in blocking buffer) overnight at 4° C. Blots were rinsed three times in PBS-T and incubated in blocking buffer containing HRP-conjugated goat anti-rabbit IgG (diluted 1:1000; Boehringer Mannheim, Indianapolis, Ind.) for 1 hr at 27° C. Immunoreactive bands were visualized by enhanced chemiluminescence (Amersham Pharmacia Biotech, Piscataway, N.J.). The membranes were then stripped of antibodies by incubation in 200 mM NaOH for 20 min at 27° C. […] After three washes in PBS-T, blots were incubated with HRP-conjugated goat anti-rabbit IgG (diluted 1:1000; Boehringer Mannheim) for 1 hr at 27° C., and immunoreactive bands were visualized by enhanced chemiluminescence and autoradiography. […] Data were normalized by dividing values obtained for phospho-ERK1 and phospho-ERK2 immunoreactivity by the value obtained for total ERK1 immunoreactivity for each sample.
# [3] = system: mechanical nociceptive threshold; details: injected intradermally (Khasar et al., 1999b); cited from earlier work
# [4] = system: mechanical nociceptive threshold; details: epinephrine 100 ng, 3.82 and 4.54 N/mm^2
# [5] = system: mechanical nociceptive threshold; details: dose-response studies (Khasar et al., 1999b); cited from earlier work
# [6] = system: mechanical nociceptive threshold; assay: Epinephrine-induced mechanical hyperalgesia, Randall-Selitto paw-withdrawal test (Example 1); details: rat, in vivo
# Description: The nociceptive flexion reflex (Randall-Selitto paw-withdrawal test) was quantified with a Basile Analge-symeter (Stoelting, Chicago, Ill.), which applies a linearly increasing mechanical force to the dorsum of the rat's hindpaw. The mechanical nociceptive threshold was defined as the force in grams at which the rat withdrew its paw. […] They were allowed to crawl into individual cylindrical Perspex blocks and were lightly restrained there by closing both ends of the cylinder. […] The rats were allowed to acclimatize to the restrainer for 5-10 min, after which the hindpaws were exposed to the test stimulus. Three readings were taken at 5 min intervals, and their mean was considered the baseline threshold. After each drug administration, mechanical paw-withdrawal thresholds were determined again as the mean of three readings taken 20, 25, and 30 min after injection.
# Inhibitors were diluted with distilled water before intra-dermal injections into the paw using a 10 μl microsyringe (Hamilton, Reno, Nev.). Injections of peptides (1 μg/2.5 μl) were always preceded by injection of distilled water (2.5 μl) to produce hypo-osmotic shock. […] Paw-withdrawal thresholds were measured again 10, 15, and 20 min after injecting the test agent. The mean of the paw-withdrawal thresholds obtained at these three times was then taken as the mechanical nociceptive threshold at the dose of the test agent used. The effect of each dose a test agent was calculated as the percentage change from baseline.
structure (smiles),measurement,setting,value
CNC[C@H](O)c1ccc(O)c(O)c1 [epinephrine],change in mechanical nociceptive threshold over dose range,"[1]; epinephrine 1-1000 ng intradermal, normal male and female rats",dose-dependent decrease
same,"decrease in threshold after epinephrine, gonadectomized vs gonad-intact","[1]; female rats, epinephrine 100 ng",greater
same,absolute decrease in threshold after epinephrine,[1]; female rats,72.7 ± 0.9 g
same,"decrease in paw-withdrawal threshold produced by epinephrine, gonadectomized vs gonad-intact","[1]; male rats, epinephrine 100 ng",no significant difference
same,absolute decrease in threshold after epinephrine,[1]; male rats,63.7 ± 0.9 g
same,ERK1/2 phosphorylation (representative Western blot),[2],stimulation
same,concentration at which effect on ERK phosphorylation appeared maximal,[2],1 µM
same,increase of phospho-ERK immunoreactivity over basal level,[2],~1.7 fold
same,time after which ERK phosphorylation returned to basal levels,[2],60 min
same,time at which epinephrine-evoked ERK phosphorylation was greatest,[2],5 min
same,Emax,"[2]; Rattus norvegicus, DRG neuron, 5 min, read-out: maximal response relative to response to NGF",30 to 50%
same,ED50 for lowering the nociceptive threshold,[3],~20 ng
same,"response to VFH stimulation, wild-type vs PKCε mutant",[4]; female mice,similar
same,epinephrine-induced change in nociceptive response in PKCε-null vs wild-type,[4]; male mice,significantly less
same,dose producing maximal hyperalgesia,[5],100 ng
same,decrease in mechanical nociceptive thresholds,[6],~35%
